Data as given in publication PMC6717000 (Biosensors & bioelectronics, 2019).

System: Acid phosphatase from potato (AcP)
Assay: phenolCEST MRI of released phenol, initial velocity over […] min
Type: biochemical, Solanum tuberosum
Conditions: pH 5.0, 37 °C, 10 mM acetate buffer, 10 mM Mg2+

## O=P(O)(O)Oc1ccccc1 [PP, phenyl phosphate]
  Km: 3.5 mM
